Reference: US11236087B2, “Highly active pyrazolo-piperidine substituted indole-2-carboxamides active against the hepatitis B virus (HBV)” (AiCuris GmbH & Co. KG, priority 2017, dated 2022)

Legend:
[1] = test system: HBV; experiment: Determination of HBV DNA from the supernatants of HepAD38 cells (anti-HBV activity); format: cell-based, hepatitis B virus; conditions: Hepatitis B virus, 144 h; HBV DNA in HepAD38 supernatant, day 6, qPCR; read-out: Cell Activity (EC50)
Method: Determination of HBV DNA from the Supernatants of HepAD38 Cells
The anti-HBV activity was analysed in the stable transfected cell line HepAD38, which has been described to secrete high levels of HBV virion particles (Ladner et al., 1997). In brief, HepAD38 cells were cultured at 37° C. at 5% CO2 and 95% humidity in 200 μl maintenance medium, which was Dulbecco's modified Eagle's medium/Nutrient Mixture F-12 (Gibco, Karlsruhe), 10% fetal bovine serum (PAN Biotech Aidenbach) supplemented with 50 μg/ml penicillin/streptomycin (Gibco, Karlsruhe), 2 mM L-glutamine (PAN Biotech, Aidenbach), 400 μg/ml G418 (AppliChem, Darmstadt) and 0.3 μg/ml tetracycline. Cells were subcultured once a week in a 1:5 ratio, but were usually not passaged more than ten times. For the assay 60,000 cells were seeded in maintenance medium without any tetracycline into each well of a 96-well plate and treated with serial half-log dilutions of test compound. To minimize edge effects the outer 36 wells of the plate were not used but were filled with assay medium. On each assay plate six wells for the virus control (untreated HepAD38 cells) and six wells for the cell control (HepAD38 cells treated with 0.3 μg/ml tetracycline) were allocated, respectively. In addition, one plate set with reference inhibitors like BAY 41-4109, entecavir, and lamivudine instead of screening compounds were prepared in each experiment. In general, experiments were performed thrice in triplicates. At day 6 HBV DNA from 100 μl filtrated cell culture supernatant (AcroPrep Advance 96 Filter Plate, […] Supor membran, PALL GmbH, Dreieich) was automatically purified on the MagNa Pure LC instrument using the MagNA Pure 96 DNA and Viral NA Small Volume Kit (Roche Diagnostics, Mannheim) according to the instructions of the manufacturer. EC50 values were calculated from relative copy numbers of HBV DNA In brief, 5 μl of the 100 μl eluate containing HBV DNA were subjected to PCR LC480 Probes Master Kit (Roche) together with 1 μM antisense primer […], 0.5 μM sense primer […], 0.3 μM hybprobes […]-FL and LC640-[…]-PH (TIBMoBiol, Berlin) to a final volume of 12.5 μl. The PCR was performed on the Light Cycler 480 real time system (Roche Diagnostics, Mannheim) using the following protocol: Pre-incubation for 1 min at 95° C., amplification: 40 cycles×(10 sec at 95° C., 50 sec at 60° C., 1 sec at 70° C.), cooling for 10 sec at 40° C. Viral load was quantitated against known standards using HBV plasmid DNA of pCH-9/3091 (Nassal et al., 1990, Cell 63: 1357-1363) and the LightCycler 480 SW 1.5 software (Roche Diagnostics, Mannheim) and EC50 values were calculated using non-linear regression with GraphPad Prism 6 (GraphPad Software Inc., La Jolla, USA).

[2] = Cell viability assay (AlamarBlue) in HepAD38 cells; conditions: human

SMILES: O=C(c1cc2ccccc2[nH]1)N1CCc2[nH]nc(C(=O)N3CC(F)(F)C(F)(F)C3)c2C1 [Example 223, 2-[3-(3,3,4,4-tetrafluoropyrrolidine-1-carbonyl)-1H,4H,5H,6H,7H-pyrazolo[4,3-c]pyridine-5-carbonyl]-1H-indole]
- EC50 [1]: 1 to 25 µM
- CC50 at 6 days [2]: > 10 µM

SMILES: O=C(c1cc2ccccc2[nH]1)N1CCc2[nH]nc(C(=O)N3CC[C@H](F)C3)c2C1 [Example 224, 2-{3-[(3S)-3-fluoropyrrolidine-1-carbonyl]-1H,4H,5H,6H,7H-pyrazolo[4,3-c]pyridine-5-carbonyl}-1H-indole]
- EC50 [1]: < 1 µM
- CC50 at 6 days [2]: > 10 µM

SMILES: O=C(c1cc2ccccc2[nH]1)N1CCc2[nH]nc(C(=O)N3CC[C@@H](F)C3)c2C1 [Example 225, 2-{3-[(3R)-3-fluoropyrrolidine-1-carbonyl]-1H,4H,5H,6H,7H-pyrazolo[4,3-c]pyridine-5-carbonyl}-1H-indole]
- EC50 [1]: < 1 µM
- CC50 at 6 days [2]: > 10 µM

SMILES: COC(=O)CC1(N(C)C(=O)c2n[nH]c3c2CN(C(=O)c2cc4ccccc4[nH]2)CC3)CC1 [Example 226, methyl 2-{1-[N-methyl 5-(1H-indole-2-carbonyl)-1H,4H,5H,6H,7H-pyrazolo[4,3-c]pyridine-3-amido]cyclopropyl}acetate]
- EC50 [1]: 1 to 25 µM
- CC50 at 6 days [2]: > 10 µM

SMILES: CCc1cc(F)cc2[nH]c(C(=O)N3CCc4[nH]nc(C(=O)N5CCC(F)(F)C5)c4C3)cc12 [Example 227, 2-[3-(3,3-difluoropyrrolidine-1-carbonyl)-1H,4H,5H,6H,7H-pyrazolo[4,3-c]pyridine-5-carbonyl]-4-ethyl-6-fluoro-1H-indole]
- EC50 [1]: < 1 µM
- CC50 at 6 days [2]: > 10 µM

SMILES: CCc1cccc2[nH]c(C(=O)N3CCc4[nH]nc(C(=O)N5CCC(F)(F)C5)c4C3)cc12 [Example 228, 2-[3-(3,3-difluoropyrrolidine-1-carbonyl)-1H,4H,5H,6H,7H-pyrazolo[4,3-c]pyridine-5-carbonyl]-4-ethyl-1H-indole]
- EC50 [1]: < 1 µM
- CC50 at 6 days [2]: > 10 µM

SMILES: O=C(c1cc2c(Cl)cc(F)cc2[nH]1)N1CCc2[nH]nc(C(=O)N3CCC(F)(F)C3)c2C1 [Example 229, 4-chloro-2-[3-(3,3-difluoropyrrolidine-1-carbonyl)-1H,4H,5H,6H,7H-pyrazolo[4,3-c]pyridine-5-carbonyl]-6-fluoro-1H-indole]
- EC50 [1]: < 1 µM
- CC50 at 6 days [2]: > 10 µM

SMILES: O=C(c1cc2c(Cl)cccc2[nH]1)N1CCc2[nH]nc(C(=O)N3CCC(F)(F)C3)c2C1 [Example 230, 4-chloro-2-[3-(3,3-difluoropyrrolidine-1-carbonyl)-1H,4H,5H,6H,7H-pyrazolo[4,3-c]pyridine-5-carbonyl]-1H-indole]
- EC50 [1]: < 1 µM
- CC50 at 6 days [2]: > 10 µM

SMILES: O=C(c1cc2c(F)c(F)ccc2[nH]1)N1CCc2[nH]nc(C(=O)N3CCC(F)(F)C3)c2C1 [Example 231, 2-[3-(3,3-difluoropyrrolidine-1-carbonyl)-1H,4H,5H,6H,7H-pyrazolo[4,3-c]pyridine-5-carbonyl]-4,5-difluoro-1H-indole]
- EC50 [1]: < 1 µM
- CC50 at 6 days [2]: > 10 µM

SMILES: CC(=O)N1CCN(C(=O)c2[nH]nc3c2CN(C(=O)c2cc4ccccc4[nH]2)CC3)C2(CC2)C1 [Example 236, 1-{4-[5-(1H-indole-2-carbonyl)-2H,4H,5H,6H,7H-pyrazolo[4,3-c]pyridine-3-carbonyl]-4,7-diazaspiro[2.5]octan-7-yl}ethan-1-one]
- EC50 [1]: 1 to 25 µM
- CC50 at 6 days [2]: > 10 µM

SMILES: CN(C(=O)c1n[nH]c2c1CN(C(=O)c1cc3ccccc3[nH]1)CC2)C1(CCC(N)=O)CC1 [Example 237, N-[1-(2-carbamoylethyl)cyclopropyl]-5-(1H-indole-2-carbonyl)-N-methyl-1H,4H,5H,6H,7H-pyrazolo[4,3-c]pyridine-3-carboxamide]
- EC50 [1]: < 100 µM
- CC50 at 6 days [2]: > 10 µM

SMILES: CN(C(=O)c1n[nH]c2c1CN(C(=O)c1cc3c(F)cc(F)cc3[nH]1)CC2)C1(CO)CC1 [Example 238, 5-(4,6-difluoro-1H-indole-2-carbonyl)-N-[1-(hydroxymethyl)cyclopropyl]-N-methyl-1H,4H,5H,6H,7H-pyrazolo[4,3-c]pyridine-3-carboxamide]
- EC50 [1]: < 1 µM
- CC50 at 6 days [2]: > 10 µM
